From patent publication US9771378B2 (Denali Therapeutics, Inc., priority 2014, dated 2017) come the findings set out here.

Each structure is given as a SMILES string. Where only a bound is given, the exact number is not on record here.

By IC50 is commonly meant the concentration that inhibits the measured activity by half.

The assay concerns Aβ42 (human neuroglioma H4 cells expressing human wild type APP751). Put plainly: In vitro cell screening assay with sandwich ELISA quantification of Aβ42 peptide. Particulars: H4 cells stably expressing human wild type APP751; Pro293 chemically defined medium; compounds 0.003-10 μM; incubated overnight (16-18 h); supernatant Aβ42 by sandwich ELISA; normalized to DMSO and DAPT; read-out: Aβ42 H4 Prot Fre IC50. The class given is cell-based. As for the experimental part: Human neuroglioma H4 cells were transfected with a pcDNA3.1 plasmid expressing human wild type APP751 cDNA and a stable cell line was generated using G418 selection. Cells are plated at 15,000 cells/well in Costar 96-well plates and placed at 37° C. and 5% CO2. Six hours after plating, cells are washed three times with Pro293™ chemically defined medium, followed by addition of compounds (0.003-10 μM, final DMSO concentration of 0.33%). Plates were incubated overnight (16-18 h) and supernatant was removed for quantification of AP peptides by sandwich ELISA. Cytotoxicity was evaluated using Cell-Titer 96W AQueous One Solution Cell Proliferation Assay according to the manufacturer's protocol.
ELISA Measurements of Aβ Peptides
Aβ peptide levels were quantified by sandwich ELISA. 96-well plates are coated with C-terminal specific Aβ antibodies recognizing either Aβ37, Aβ38, Aβ40, Aβ42, Aβ43 or a N-terminal specific Aβ antibody to detect Aβ 1-x. Plates are then blocked overnight at 4° C. with 1% bovine serum albumin (BSA) in PBS-T. Plates are washed and 100 μl of cultured cell supernatant or synthetic Aβ peptide standards and a detection antibody (4G8-HRP) are applied to the blocked plate and incubated overnight at 4° C. The next day, wells are washed before the addition […] of detection substrate (TMB peroxidase). Plates are then read for absorbance at 450 nm on a Molecular Devices SpectraMax M5e Microplate Reader.
IC50 values were calculated from values reported as percent of DMSO controls using nonlinear regression, based on a sigmoidal dose-response (variable slope) model. GraphPAD software from Prism used for calculation.
(ELISA stands for enzyme-linked immunosorbent assay.)
For `COc1nc(Nc2ncc3c(n2)N(C)C(C)CO3)ccc1-n1cnc(C)c1` (racemic) [Example 190], the IC50 is greater than 3000 nM.
Consider `COc1ccc(C2COc3cnc(Nc4ccc(-n5cnc(C)c5)c(OC)c4)nc3N2C)c(C)c1` (single isomer, unassigned; (-)) [Example 199B], for which the IC50 stood at 95 nM.
With `COc1cc(Nc2ncc3c(n2)N(C)C(c2cc(F)c(F)c(F)c2)CO3)ccc1-n1cnc(C)c1` (single isomer, unassigned; (+)) [Example 40B], the IC50 was found to be 11 nM.
Consider `COc1cc(Nc2ncc3c(n2)N2CCC(F)(F)C2CO3)cnc1-n1cnc(C)c1` (single isomer, unassigned; (+)) [Example 305A, (+)-7,7-difluoro-N-(5-methoxy-6-(4-methyl-1H-imidazol-1-yl)pyridin-3-yl)-6a, 7,8,9-tetrahydro-6H-pyrimido [5,4-b] pyrrolo [1,2-d] [1, 4] oxazin-2-amine], for which the IC50 stood at 132 nM.
With `Cc1cn(-c2ccc(Nc3ncc4c(n3)N(C)C(c3ccccc3C)CO4)cc2)cn1` (racemic) [Example 43], the IC50 came to 216 nM.
The result for `Cc1cn(-c2ccc(Nc3ncc4c(n3)N(C)C(C)CO4)cn2)cn1` (single isomer, unassigned; (-)) [Example 194B] reads greater than 3000 nM.
The result for `COc1cc(Nc2ncc3c(n2)N(C)C(c2cc(F)cc(F)c2)CO3)ccc1-c1ccnc(C)c1` (racemic) [Example 42] reads 47 nM; that for `COc1cc(Nc2ncc3c(n2)N(C)C(CC(F)(F)F)CO3)ccc1-n1cnc(C)c1` (single isomer, unassigned; (+)) [Example 172B], 54 nM; that for `COc1cc(Nc2ncc3c(n2)N(C)C2(COC2)CO3)cnc1-n1cnc(C)c1` [Example 272], 537 nM.
For `Cc1cc(-c2ccc(Nc3ncc4c(n3)N(C)C(c3ccc(F)cc3)CO4)cc2F)ccn1` (single isomer, unassigned; (-)) [Example 56B], the IC50 was 3460 nM.
The result for `COc1cc(Nc2ncc3c(n2)N(C)C(c2cc(F)cc(F)c2)CO3)ncc1-n1cnc(C)c1` (single isomer, unassigned; (+)) [Example 220B] reads 44 nM; that for `COc1cc(Nc2ncc3c(n2)N(C)C(C2CCC(F)(F)CC2)CO3)ccc1-n1cnc(C)c1` (single isomer, unassigned; (-)) [Example 216A], 320 nM; that for `Cc1cn(-c2ccc(Nc3ncc4c(n3)N(C)C(C)CO4)cc2OC(F)(F)F)cn1` (single isomer, unassigned; (-)) [Example 213A], greater than 3000 nM.
As for `COc1cc(Nc2ncc3c(n2)N(C)C(C2(C(F)(F)F)CC2)CO3)cnc1-n1cnc(C)c1` (single isomer, unassigned; (-)) [Example 247A], the figure is 252 nM; as for `COc1cc(Nc2ncc3c(n2)N(C)C(c2cc(Cl)ccc2C(F)(F)F)CO3)ccc1-n1cnc(C)c1` (single isomer, unassigned; (-)) [Example 165B], 79 nM.
On to `COc1cc(Nc2ncc3c(n2)N(C)C(c2ccccc2C(F)(F)F)CO3)ccc1-n1cnc(C)c1` (single isomer, unassigned; (-)) [Example 55A], for which the IC50 came out at 102 nM.
The result for `Cc1cn(-c2ccc(Nc3ncc4c(n3)N(C)C(c3ccc(Cl)cc3Cl)CO4)cc2F)cn1` (single isomer, unassigned; (+)) [Example 96A] reads 76 nM; that for `COc1cc(Nc2ncc3c(n2)N(C)C(c2ccc(Cl)cc2C(F)(F)F)CO3)ccc1-n1cnc(C)c1` (single isomer, unassigned; (-)) [Example 112A], 231 nM.
For `COc1cc(Nc2ncc3c(n2)N2C(=O)CCC2CO3)cnc1-n1cnc(C)c1` (single isomer, unassigned; (-)) [Example 302B, (−)-2-((5-methoxy-6-(4-methyl-1H-imidazol-1-yl)pyridin-3-yl)amino)-6,6a, 7,8-tetrahydro-9H-pyrimido [5,4-b] pyrrolo [1,2-d] [1, 4] oxazin-9-one], the IC50 came to 2900 nM.
As for `COc1cc(Nc2ncc3c(n2)N(C)C(c2cc(F)cc(F)c2)CO3)cnc1-n1cnc(C(F)(F)F)c1` (single isomer, unassigned; (-)) [Example 206B], the figure is 704 nM; as for `COc1cc(Nc2ncc3c(n2)N(C)C(C2(C(F)(F)F)CC2)CO3)ccc1-n1cnc(C)c1` (single isomer, unassigned; (-)) [Example 245A], 216 nM.
Take `COc1cc(Nc2ncc3c(n2)N(C)C(C)CO3)ccc1-n1cnc(C)c1` (single isomer, unassigned; (-)) [Example 116A]: the IC50 was found to be 148 nM.
As for `COC[C@H]1COc2cnc(Nc3ccc(-n4cnc(C)c4)c(F)c3)nc2N1C` [Example 113], the figure is 331 nM; as for `Cc1cc(-c2ccc(Nc3ncc4c(n3)N(C)C(c3cc(F)cc(F)c3)CO4)cc2)ccn1` (single isomer, unassigned; (+)) [Example 28B], 60 nM.
On to `COc1ccc(C)c(C2COc3cnc(Nc4cnc(-n5cnc(C)c5)c(OC)c4)nc3N2C)c1` (single isomer, unassigned; (+)) [Example 207A], for which the IC50 came to 10 nM.
The result for `COc1ccc(C)c(C2COc3cnc(Nc4cnc(-n5cnc(C)c5)c(OC)c4)nc3N2C)c1` (single isomer, unassigned; (-)) [Example 207B] reads 96 nM; that for `COc1cc(Nc2ncc3c(n2)N(C)C(c2ccccc2Cl)CO3)ccc1-c1ccnc(C)c1` (single isomer, unassigned; (-)) [Example 85A], 292 nM; that for `COc1cc(Nc2ncc3c(n2)N(C)C(c2ccc(F)cc2F)CO3)ccc1-n1cnc(C)c1` (single isomer, unassigned; (-)) [Example 48A], 328 nM.
The result for `COc1cc(Nc2ncc3c(n2)N(C)C(C)(C)CO3)ccc1-c1cnn(C)c1` [Example 267] reads 822 nM; that for `Cc1cn(-c2ncc(Nc3ncc4c(n3)N(C)C(C(F)(F)F)CO4)cc2Cl)cn1` (single isomer, unassigned; (-)) [Example 229A], 215 nM; that for `COc1cc(Nc2ncc3c(n2)N(C)C(c2ccccc2C)CO3)ccc1-n1cnc(C)c1` (single isomer, unassigned; (-)) [Example 31A], 138 nM.
The result for `COc1ccc(C2COc3cnc(Nc4cnc(-n5cnc(C)c5)c(OC)c4)nc3N2C)c(C)c1` (single isomer, unassigned; (+)) [Example 215A] reads 16 nM.
Turning to `COc1cc(Nc2ncc3c(n2)N(C)C(CC(F)(F)F)CO3)cnc1-n1cnc(C)c1` (single isomer, unassigned; (-)) [Example 238A], the IC50 turned out to be 648 nM.
As for `COc1cc(Nc2ncc3c(n2)N(C)C(c2cc(C(F)(F)F)ccc2Cl)CO3)ccc1-n1cnc(C)c1` (racemic) [Example 88], the figure is 39 nM; as for `Cc1cc(-c2ccc(Nc3ncc4c(n3)N(C)C(c3ccccc3)CO4)cc2)ccn1` (single isomer, unassigned; (+)) [Example 24A], 68 nM; as for `Cc1cn(-c2ccc(Nc3ncc4c(n3)N(C)C(c3ccc(F)cc3Cl)CO4)cc2F)cn1` (single isomer, unassigned; (+)) [Example 101A], 75 nM.
As for `Cc1cn(-c2ccc(Nc3ncc4c(n3)N(C)C(c3cc(F)cc(F)c3)CO4)cc2OC(F)(F)F)cn1` (single isomer, unassigned; (-)) [Example 223A], the IC50 is greater than 3000 nM.
On to `COc1cc(Nc2ncc3c(n2)N(C)[C@@H](CC2CC2)CO3)cnc1-n1cnc(C)c1` [Example 218], for which the IC50 is 39 nM.
As for `Cc1cn(-c2ccc(Nc3ncc4c(n3)N(C)C(c3cc(Cl)ccc3C(F)(F)F)CO4)cc2F)cn1` (single isomer, unassigned; (-)) [Example 100B], the figure is 588 nM; as for `COc1cc(Nc2ncc3c(n2)N2CC(F)(F)C[C@H]2CO3)ccc1-n1cnc(C)c1` [Example 297, (S)-8,8-difluoro-N-(3-methoxy-4-(4-methyl-1H-imidazol-1-yl)phenyl)-6a, 7,8,9-tetrahydro-6H-pyrimido [5,4-b] pyrrolo [1,2-d] [1, 4] oxazin-2-amine], 99 nM.
Regarding `COc1cc(Nc2ncc3c(n2)N(C)C(c2cc(F)c(F)c(F)c2)CO3)ccc1-n1cnc(C)c1` (single isomer, unassigned; (-)) [Example 40A], the IC50 came to 279 nM.
As for `Cc1cn(-c2ccc(Nc3ncc4c(n3)N(C)C(c3ccccc3C(F)(F)F)CO4)cc2F)cn1` (single isomer, unassigned; (+)) [Example 84A], the figure is 203 nM.
The result for `COc1ccc(C2COc3cnc(Nc4ccc(-n5cnc(C)c5)c(OC)c4)nc3N2C)c(C)c1` (racemic) [Example 92] reads 27 nM; that for `COc1cc(Nc2ncc3c(n2)N(C)C(c2cc(F)cc(F)c2)CO3)ncc1-n1cnc(C)c1` (single isomer, unassigned; (-)) [Example 220A], greater than 3000 nM.
As for `COc1cc(Nc2ncc3c(n2)N(C)C2(CCCC2)CO3)cnc1-n1cnc(C)c1` [Example 259], the figure is 73 nM.
